Measurements as given in US20060115815A1 (priority 2002, published 2006).
Like-named read-outs stand apart in the source and are kept apart here.

Tests used:
[1] = target: 84V90M (Human immunodeficiency virus type 1 group M subtype B, UniProt P04585, I572V/L578M); assay: cell-based; design: species or system HIV-1
[2] = system: mutant HIV-1 with I84V/L90M mutations in the protease gene; assay type: cell-based
[3] = target: recombinant HIV-1 protease (Human immunodeficiency virus type 1 group M subtype B, UniProt P04585); assay: biochemical; assay type: biochemical
[4] = system: wild-type HIV-1 strain IIIB; assay: microbe, parasite or virus in culture; assay type: cell-based; settings: read-out: EC50
[5] = fold difference in EC50, mutant vs. wild type

Compound	I84V/L90M fold change [2, 5]	I84V/L90M fold change ([2]; I84V/L90M mutant)	also measured
Nc1n[nH]c2ccc(CN3C(=O)N(Cc4cccc(OCP(=O)(O)Oc5ccccc5)c4)C(Cc4ccccc4)C(O)C(O)C3Cc3ccccc3)cc12 (stereo not drawn) [m-OCH2PO3HPh]	–	–	EC50 [1]: > 6000 nM
CCOP(=O)(Cc1ccc(NCC(NC(=O)OC2COC3OCCC23)C(O)CN(CC(C)C)S(=O)(=O)c2ccc(OC)cc2)cc1)OCC (stereo not drawn)	+ (>3 to ≦10)	–	–
CCOP(=O)(CCn1nc(O)c2cc(CN3C(=O)N(Cc4ccccc4)[C@H](Cc4ccccc4)[C@H](O)[C@@H](O)[C@H]3Cc3ccccc3)ccc21)OCC	–	–	IC50 ([3]; read-out: Enzymatic assay WT IC50/nM): 109 nM
CC(C)CN(C[C@@H](O)[C@H](Cc1ccc(OCP(=O)(Oc2ccccc2)Oc2ccccc2)cc1)NC(=O)OC1CCOC1)S(=O)(=O)c1ccc(N)cc1 (stereo partly drawn) [NH2, phenol]	–	— (≦3)	–
Cc1ccc(C(=O)N[C@@H](Cc2ccc(OCP(=O)(Oc3ccccc3)Oc3ccccc3)cc2)[C@H](O)CN(CC(C)C)S(=O)(=O)c2ccc(N)cc2)cc1O	–	+ (>3 to ≦10)	EC50 [4]: 50 to 500 nM; Ki ([3]; read-out: Ki): 100 to 1000 pM
CCOP(=O)(Cc1ccc(N(C)CC(NC(=O)OC2COC3OCCC23)C(O)CN(CC(C)C)S(=O)(=O)c2ccc(OC)cc2)cc1)OCC (stereo not drawn)	+ (>3 to ≦10)	–	–
COc1ccc(S(=O)(=O)N(CC(O)C(Cc2ccccc2)NC(=O)OC2COC3OCCC23)CC(C)(C)CO)cc1 (stereo not drawn)	–	+++ (>30)	–
CCOP(=O)(Cc1ccc2c(c1)CCN(CC(NC(=O)OC1COC3OCCC13)C(O)CN(CC(C)C)S(=O)(=O)c1ccc(OC)cc1)C2)OCC (stereo not drawn)	+ (>3 to ≦10)	–	–
CCOC(=O)C(C)OP(=O)(Cc1ccc2c(c1)CCN(C[C@H](NC(=O)O[C@H]1CO[C@H]3OCC[C@H]31)[C@H](O)CN(CC(C)C)S(=O)(=O)c1ccc(OC)cc1)C2)Oc1ccccc1 (stereo partly drawn)	+ (>3 to ≦10)	–	EC50 [4]: 50 to 500 nM
CCOP(=O)(COc1cc(S(=O)(=O)N(CC(C)C)CC(O)C(Cc2ccccc2)NC(=O)OC2COC3OCCC23)ccc1OC)OCC (stereo not drawn)	–	+ (>3 to ≦10)	–
CC(C)CN(CC(O)C(Cc1ccccc1)NC(=O)OC1COC2OCCC12)S(=O)(=O)c1ccc(OCP(=O)(OCc2ccccc2)OCc2ccccc2)cc1 (stereo not drawn)	–	+++ (>30)	–
COc1ccc(S(=O)(=O)N(CC(C)C)CC(O)C(CNc2ccc(CP(=O)(O)O)cc2)NC(=O)OC2COC3OCCC23)cc1 (stereo not drawn)	+ (>3 to ≦10)	–	–
CC[C@H](OP(=O)(O)COc1ccc(C[C@H](NC(=O)O[C@H]2CO[C@H]3OCC[C@H]32)[C@H](O)CN(CC(C)C)S(=O)(=O)c2ccc(OC)cc2)cc1)C(=O)O [drawing 659 R1=OH R2=(S)Hba-OH]	–	–	Ki ([3]; read-out: Ki): 10 to 100 pM
COc1ccc(S(=O)(=O)N(CC(C)C)CC(O)C(Cc2ccc(C)cc2)NC(=O)OC2COC3OCCC23)cc1 (stereo not drawn)	–	+ (>3 to ≦10)	EC50 [4]: < 50 nM
COc1ccc(S(=O)(=O)N(CC(C)C)CC(O)C(Cc2ccc(NCP(=O)(NC(C)C(=O)OC(C)C)Oc3ccccc3)cc2)NC(=O)OC2COC3OCCC23)cc1 (stereo not drawn) [drawing 704]	–	–	Ki ([3]; Ki (pM), class symbols, Table 10): 10 to 100 pM
COc1ccc(S(=O)(=O)N(CC(C)C)CC(O)C(Cc2ccc(OCc3ccccc3)cc2)NC(=O)OC2COC3OCCC23)cc1 (stereo not drawn)	–	— (≦3)	–
COC(=O)N[C@H](C(=O)N[C@@H](Cc1ccccc1)[C@@H](O)CN(Cc1ccc(-c2ccccn2)cc1)NC(=O)[C@@H](NC(=O)OC)C(C)(C)C)C(C)(C)C [Atazanavir, reference compound]	+++ (>30)	–	–
CCOC(=O)C(C)OP(=O)(Oc1ccccc1)c1ccc(CN(C)CC(NC(=O)OC2COC3OCCC23)C(O)CN(CC(C)C)S(=O)(=O)c2ccc(OC)cc2)cc1 (stereo not drawn)	+ (>3 to ≦10)	–	EC50 [4]: < 50 nM
COc1ccc(S(=O)(=O)N(CCN2CCOCC2)CC(O)C(Cc2ccc(OCP(=O)(OCc3ccccc3)OCc3ccccc3)cc2)NC(=O)OC2COC3OCCC23)cc1 (stereo not drawn)	–	+ (>3 to ≦10)	–
CC(C)CN(CC(O)C(Cc1ccc(OCP(=O)(OCc2ccccc2)OCc2ccccc2)cc1)NC(=O)OC1COC2OCCC12)S(=O)(=O)c1ccc(F)cc1 (stereo not drawn)	–	+ (>3 to ≦10)	–
CC(C)CN(CC(O)C(Cc1ccc(OCP(=O)(OCc2ccccc2)OCc2ccccc2)cc1)NC(=O)OC1COC2OCCC12)S(=O)(=O)c1ccc(OC(F)(F)F)cc1 (stereo not drawn)	–	+ (>3 to ≦10)	–
CCCCOC(=O)C(CC(C)C)NP(=O)(COc1ccc(CC(NC(=O)OC2COC3OCCC23)C(O)CN(CC(C)C)S(=O)(=O)c2ccc(OC)cc2)cc1)NC(CC(C)C)C(=O)OCCCC (stereo not drawn) [drawing 655 R1=Leu-Bu R2=Leu-Bu]	+ (>3 to ≦10)	–	–
COc1ccc(S(=O)(=O)N(CCN2CCOCC2)CC(O)C(Cc2ccc(OCP(=O)(O)O)cc2)NC(=O)OC2COC3OCCC23)cc1 (stereo not drawn)	–	+ (>3 to ≦10)	–
CCOC(=O)C(C)OP(=O)(COc1ccc2c(c1)CCN(CC(NC(=O)OC1COC3OCCC13)C(O)CN(CC(C)C)S(=O)(=O)c1ccc(OC)cc1)C2)Oc1ccccc1 (stereo not drawn)	+ (>3 to ≦10)	–	–
CC(C)CN(CC(O)C(Cc1ccccc1)NC(=O)OC1COC2OCCC12)S(=O)(=O)c1ccc(OCP(=O)(O)Oc2ccccc2)cc1 (stereo not drawn)	–	–	Ki ([3]; Ki): 10 to 100 pM
